Test results from ChEMBL document CHEMBL1127062 (J Med Chem, 1993).

target: Ryanodine receptor 1 (Oryctolagus cuniculus, UniProt P11716); assay: Affinity for sarcoplasmic reticular calcium release channel (SR CRC) of rabbit skeletal membrane vesicles
Sequence (P11716 whole entry): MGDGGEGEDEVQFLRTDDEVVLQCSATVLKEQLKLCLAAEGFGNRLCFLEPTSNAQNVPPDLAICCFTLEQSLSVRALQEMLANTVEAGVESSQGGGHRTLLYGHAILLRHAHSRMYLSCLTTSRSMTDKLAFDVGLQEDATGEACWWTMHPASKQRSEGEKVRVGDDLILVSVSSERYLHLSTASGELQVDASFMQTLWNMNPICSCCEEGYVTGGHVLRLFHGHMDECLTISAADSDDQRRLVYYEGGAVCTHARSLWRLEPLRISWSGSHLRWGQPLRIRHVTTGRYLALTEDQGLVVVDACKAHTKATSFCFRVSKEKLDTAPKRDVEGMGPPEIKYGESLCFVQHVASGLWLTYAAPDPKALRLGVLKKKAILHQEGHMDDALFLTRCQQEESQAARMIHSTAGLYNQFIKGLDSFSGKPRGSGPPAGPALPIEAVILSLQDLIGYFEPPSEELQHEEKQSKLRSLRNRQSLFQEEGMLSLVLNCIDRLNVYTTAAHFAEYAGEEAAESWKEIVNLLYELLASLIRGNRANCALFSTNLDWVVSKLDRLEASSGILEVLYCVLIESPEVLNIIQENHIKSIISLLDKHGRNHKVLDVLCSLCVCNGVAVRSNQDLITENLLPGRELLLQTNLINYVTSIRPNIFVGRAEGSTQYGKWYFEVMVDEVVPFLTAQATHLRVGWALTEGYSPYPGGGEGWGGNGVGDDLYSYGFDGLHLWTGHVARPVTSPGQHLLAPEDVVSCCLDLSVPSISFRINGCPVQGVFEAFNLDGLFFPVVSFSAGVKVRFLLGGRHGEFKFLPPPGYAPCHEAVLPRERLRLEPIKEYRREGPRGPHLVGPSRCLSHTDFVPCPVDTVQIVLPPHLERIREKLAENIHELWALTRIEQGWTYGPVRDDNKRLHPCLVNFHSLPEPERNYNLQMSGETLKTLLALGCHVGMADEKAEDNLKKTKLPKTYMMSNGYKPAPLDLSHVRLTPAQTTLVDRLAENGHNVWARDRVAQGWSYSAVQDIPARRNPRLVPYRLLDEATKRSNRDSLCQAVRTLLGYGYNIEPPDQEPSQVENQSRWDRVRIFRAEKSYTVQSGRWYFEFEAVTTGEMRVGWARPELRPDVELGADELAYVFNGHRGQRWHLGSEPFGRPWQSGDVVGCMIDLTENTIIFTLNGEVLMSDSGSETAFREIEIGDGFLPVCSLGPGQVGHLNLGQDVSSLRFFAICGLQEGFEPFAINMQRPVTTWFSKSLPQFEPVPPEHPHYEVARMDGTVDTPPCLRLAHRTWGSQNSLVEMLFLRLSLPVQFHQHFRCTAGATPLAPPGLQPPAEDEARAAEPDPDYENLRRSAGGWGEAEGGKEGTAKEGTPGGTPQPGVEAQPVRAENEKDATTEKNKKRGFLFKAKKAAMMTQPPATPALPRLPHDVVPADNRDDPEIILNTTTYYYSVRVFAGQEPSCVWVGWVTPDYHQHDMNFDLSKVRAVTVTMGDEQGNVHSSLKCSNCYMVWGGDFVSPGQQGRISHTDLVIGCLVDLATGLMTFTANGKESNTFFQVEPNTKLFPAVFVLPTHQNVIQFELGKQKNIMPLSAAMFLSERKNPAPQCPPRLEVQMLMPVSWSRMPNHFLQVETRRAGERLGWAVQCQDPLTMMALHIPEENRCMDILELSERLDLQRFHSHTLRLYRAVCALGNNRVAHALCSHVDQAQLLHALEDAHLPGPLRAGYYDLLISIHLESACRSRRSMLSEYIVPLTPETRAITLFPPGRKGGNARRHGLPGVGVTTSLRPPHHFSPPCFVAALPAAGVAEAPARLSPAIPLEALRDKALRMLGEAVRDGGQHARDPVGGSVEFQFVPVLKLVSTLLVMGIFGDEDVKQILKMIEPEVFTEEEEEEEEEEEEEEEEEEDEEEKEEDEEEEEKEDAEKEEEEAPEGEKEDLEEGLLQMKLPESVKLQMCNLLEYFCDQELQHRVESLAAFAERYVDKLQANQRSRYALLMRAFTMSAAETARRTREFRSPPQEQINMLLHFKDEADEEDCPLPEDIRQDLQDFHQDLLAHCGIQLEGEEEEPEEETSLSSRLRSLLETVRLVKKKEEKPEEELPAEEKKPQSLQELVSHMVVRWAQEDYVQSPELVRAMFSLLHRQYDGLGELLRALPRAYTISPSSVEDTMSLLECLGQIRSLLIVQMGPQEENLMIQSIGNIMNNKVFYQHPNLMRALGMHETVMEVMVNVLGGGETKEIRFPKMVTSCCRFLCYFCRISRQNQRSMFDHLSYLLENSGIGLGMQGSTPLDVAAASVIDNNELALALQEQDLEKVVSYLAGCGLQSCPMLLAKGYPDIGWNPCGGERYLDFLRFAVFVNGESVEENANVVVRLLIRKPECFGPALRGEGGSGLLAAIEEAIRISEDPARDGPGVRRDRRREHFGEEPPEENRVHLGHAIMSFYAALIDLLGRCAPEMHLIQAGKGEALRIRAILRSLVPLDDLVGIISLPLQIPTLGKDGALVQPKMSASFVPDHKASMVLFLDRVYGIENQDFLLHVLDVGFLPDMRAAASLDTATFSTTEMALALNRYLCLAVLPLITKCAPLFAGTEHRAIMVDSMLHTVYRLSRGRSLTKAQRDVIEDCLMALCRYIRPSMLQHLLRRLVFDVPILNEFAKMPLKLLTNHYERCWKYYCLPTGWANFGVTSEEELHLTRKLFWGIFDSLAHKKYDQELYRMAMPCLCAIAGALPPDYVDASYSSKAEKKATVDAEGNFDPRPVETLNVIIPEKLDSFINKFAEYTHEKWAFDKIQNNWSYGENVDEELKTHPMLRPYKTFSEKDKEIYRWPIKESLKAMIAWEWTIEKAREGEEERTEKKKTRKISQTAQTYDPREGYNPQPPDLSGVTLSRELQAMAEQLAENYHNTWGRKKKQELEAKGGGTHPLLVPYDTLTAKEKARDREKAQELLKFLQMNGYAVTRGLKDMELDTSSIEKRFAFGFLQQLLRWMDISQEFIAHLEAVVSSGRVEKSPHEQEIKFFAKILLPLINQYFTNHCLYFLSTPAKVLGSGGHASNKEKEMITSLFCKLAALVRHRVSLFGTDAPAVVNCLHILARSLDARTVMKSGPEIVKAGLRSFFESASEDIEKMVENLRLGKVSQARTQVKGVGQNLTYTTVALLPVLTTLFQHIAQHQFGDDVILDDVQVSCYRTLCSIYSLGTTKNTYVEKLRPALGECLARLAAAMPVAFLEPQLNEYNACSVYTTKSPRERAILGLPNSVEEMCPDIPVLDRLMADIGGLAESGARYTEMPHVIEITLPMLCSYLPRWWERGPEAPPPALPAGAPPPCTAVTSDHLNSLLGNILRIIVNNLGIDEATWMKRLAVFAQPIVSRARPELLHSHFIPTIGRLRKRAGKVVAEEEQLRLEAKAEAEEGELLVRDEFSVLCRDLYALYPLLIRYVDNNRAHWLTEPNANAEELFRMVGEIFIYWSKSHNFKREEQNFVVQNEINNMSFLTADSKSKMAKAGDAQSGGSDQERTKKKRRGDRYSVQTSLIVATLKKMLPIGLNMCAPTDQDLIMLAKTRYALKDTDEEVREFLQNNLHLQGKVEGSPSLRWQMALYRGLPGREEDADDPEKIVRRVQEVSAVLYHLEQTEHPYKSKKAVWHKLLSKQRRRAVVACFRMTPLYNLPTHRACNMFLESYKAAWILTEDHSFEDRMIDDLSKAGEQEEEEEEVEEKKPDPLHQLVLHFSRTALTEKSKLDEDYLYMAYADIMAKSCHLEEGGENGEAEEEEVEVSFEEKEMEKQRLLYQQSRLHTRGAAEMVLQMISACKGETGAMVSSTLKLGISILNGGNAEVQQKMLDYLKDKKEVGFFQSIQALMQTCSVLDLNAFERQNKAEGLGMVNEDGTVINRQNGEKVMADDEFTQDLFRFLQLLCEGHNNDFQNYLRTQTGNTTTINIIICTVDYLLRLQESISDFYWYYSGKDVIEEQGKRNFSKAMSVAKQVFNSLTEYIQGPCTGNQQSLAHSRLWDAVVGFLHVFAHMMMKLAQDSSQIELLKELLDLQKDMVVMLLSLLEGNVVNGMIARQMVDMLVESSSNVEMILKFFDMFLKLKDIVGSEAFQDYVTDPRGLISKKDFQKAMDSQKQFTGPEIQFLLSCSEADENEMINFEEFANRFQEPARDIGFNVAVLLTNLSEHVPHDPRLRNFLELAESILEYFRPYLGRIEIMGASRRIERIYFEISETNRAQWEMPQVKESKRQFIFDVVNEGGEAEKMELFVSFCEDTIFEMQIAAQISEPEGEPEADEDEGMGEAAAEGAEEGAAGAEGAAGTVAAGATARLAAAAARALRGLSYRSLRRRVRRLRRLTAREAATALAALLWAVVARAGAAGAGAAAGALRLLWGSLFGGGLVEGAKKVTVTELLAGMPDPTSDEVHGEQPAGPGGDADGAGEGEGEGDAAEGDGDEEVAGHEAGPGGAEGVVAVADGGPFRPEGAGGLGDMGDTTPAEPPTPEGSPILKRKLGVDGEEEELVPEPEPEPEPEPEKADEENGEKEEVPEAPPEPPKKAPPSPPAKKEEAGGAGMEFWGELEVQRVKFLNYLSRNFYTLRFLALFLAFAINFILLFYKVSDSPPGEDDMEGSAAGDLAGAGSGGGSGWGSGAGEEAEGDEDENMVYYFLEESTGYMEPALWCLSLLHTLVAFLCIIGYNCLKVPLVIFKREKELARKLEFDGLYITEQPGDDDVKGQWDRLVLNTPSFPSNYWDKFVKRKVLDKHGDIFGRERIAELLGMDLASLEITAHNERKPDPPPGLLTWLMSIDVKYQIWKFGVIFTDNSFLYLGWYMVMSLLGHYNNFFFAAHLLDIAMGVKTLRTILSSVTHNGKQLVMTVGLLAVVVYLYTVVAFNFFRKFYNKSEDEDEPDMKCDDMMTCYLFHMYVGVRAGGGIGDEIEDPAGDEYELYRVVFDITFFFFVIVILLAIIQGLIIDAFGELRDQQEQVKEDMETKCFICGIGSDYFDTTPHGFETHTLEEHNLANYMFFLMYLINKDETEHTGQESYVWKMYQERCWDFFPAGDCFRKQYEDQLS

Structure (SMILES)	IC50
CC1CCC2(O)C3(OC4(O)C[C@]2(C)C2(O)[C@H](OC(=O)c5ccc[nH]5)C(O)(C(C)C)C4(C)C32O)[C@@H]1OC(=O)CCC(=O)O (some centres not stated)	> 1000 nM
CC1CCC2(O)C3(OC4(O)C[C@]2(C)C2(O)[C@H](OC(=O)c5ccc[nH]5)C(O)(C(C)C)C4(C)C32O)[C@@H]1OC(=O)CCN=C(N)N (some centres not stated)	1.1 nM
CC1CCC2(O)C3(OC4(O)C[C@]2(C)C2(O)[C@H](OC(=O)c5ccc[nH]5)C(O)(C(C)C)C4(C)C32O)[C@@H]1OC(=O)CCN=C(NC(=O)OCc1ccccc1)NC(=O)OCc1ccccc1 (some centres not stated)	43.6 nM
CC1CCC2(O)C3(OC4(O)C[C@]2(C)C2(O)[C@H](OC(=O)c5ccc[nH]5)C(O)(C(C)C)C4(C)C32O)[C@@H]1OC(=O)CCN (some centres not stated)	2.6 nM
CC1CCC2(O)C3(OC4(O)C[C@]2(C)C2(O)[C@H](OC(=O)c5ccc[nH]5)C(O)(C(C)C)C4(C)C32O)[C@@H]1OC(=O)CNC(=O)OCc1ccccc1 (some centres not stated)	4.8 nM
CC1CCC2(O)C3(OC4(O)C[C@]2(C)C2(O)[C@H](OC(=O)c5ccc[nH]5)C(O)(C(C)C)C4(C)C32O)[C@@H]1OC(=O)CNC(=NC(=O)OCc1ccccc1)NC(=O)OCc1ccccc1 (some centres not stated)	136 nM
CNC(=O)CCC(=O)O[C@@H]1C(C)CCC2(O)C13OC1(O)C[C@]2(C)C2(O)[C@H](OC(=O)c4ccc[nH]4)C(O)(C(C)C)C1(C)C32O (some centres not stated)	49.4 nM
CC1CCC2(O)C3(OC4(O)C[C@]2(C)C2(O)[C@H](OC(=O)c5ccc[nH]5)C(O)(C(C)C)C4(C)C32O)[C@@H]1OC(=O)CCNC(=O)OCc1ccccc1 (some centres not stated)	5.9 nM
CC1CCC2(O)C3(OC4(O)C[C@]2(C)C2(O)[C@H](OC(=O)c5ccc[nH]5)C(O)(C(C)C)C4(C)C32O)[C@@H]1OC(=O)CNC(=N)N (some centres not stated)	1.8 nM
C=C1CCC2(O)C3(OC4(O)C[C@]2(C)C2(O)[C@H](OC(=O)c5ccc[nH]5)C(O)(C(C)C)C4(C)C32O)[C@@H]1O (stereo in doubt) [ANHYDRORYANIDINE]	> 10000 nM
C=C1CCC2(O)C3(OC4(O)C[C@]2(C)C2(O)[C@H](OC(=O)c5ccc[nH]5)C(O)(C(C)C)C4(C)C32O)[C@@H]1O (stereo in doubt; 2) [ANHYDRORYANIDINE]	8.9 nM
CC1CCC2(O)C3(OC4(O)C[C@]2(C)C2(O)[C@H](OC(=O)c5ccc[nH]5)C(O)(C(C)C)C4(C)C32O)[C@@H]1OC(=O)CN (some centres not stated) [GLYCYLRYANODINE]	1.8 nM
